Experimental data taken from the supplement of paper PMC10307832.

Experiments:
Test in all cases: relative viability (nuclei count vs DMSO), 5 days (fraction); higher = more cells survive
[1] = system: EMC-BAC-2
Summary of the method: (§1)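 One day after seeding in 1536-well plates, lung cancer cell lines were dosed by pin tool. Dosing was either single-drug or a fixed anchor-drug dose plus five library-drug doses (not always all listed) in √10 steps. After 5 days, nuclei were stained in one fix-and-stain step and counted on 4× images, and relative viability is the nuclei count of treated wells over that of vehicle wells, given as the median of duplicate plates.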

[2] = system: EPLC-272H
Summary of the method: as §1

[3] = system: H3255
Summary of the method: as §1

[4] = system: HOP-62
Summary of the method: as §1

[5] = system: LCLC-97TM1
Summary of the method: as §1

[6] = system: LXF-289
Summary of the method: as §1

[7] = system: NCI-H1563
Summary of the method: as §1

[8] = system: NCI-H1734
Summary of the method: as §1

[9] = system: NCI-H1915
Summary of the method: as §1

[10] = system: NCI-H1993
Summary of the method: as §1

[11] = system: NCI-H2009
Summary of the method: as §1

[12] = system: NCI-H2023
Summary of the method: as §1

[13] = system: NCI-H2085
Summary of the method: as §1

[14] = system: NCI-H2126
Summary of the method: as §1

[15] = system: NCI-H2347
Summary of the method: as §1

[16] = system: NCI-H322M
Summary of the method: as §1

[17] = system: NCI-H647
Summary of the method: as §1

[18] = system: NCI-H661
Summary of the method: as §1

[19] = system: NCI-H727
Summary of the method: as §1

[20] = system: PC-14
Summary of the method: as §1

[21] = system: SK-LU-1
Summary of the method: as §1

[22] = system: SW 1573
Summary of the method: as §1

For `Nc1ccn([C@@H]2O[C@H](CO)[C@@H](O)[C@@H]2O)c(=O)n1` [Cytarabine] + Cc1nc(NC(=O)N2CCC[C@H]2C(N)=O)sc1-c1ccnc(C(C)(C)C(F)(F)F)c1 [Alpelisib] (partner 2 µM), the relative viability ([1]; first compound 0.005 µM) was 0.64, the relative viability ([1]; first compound 0.01581 µM) was 0.658 and the relative viability ([1]; first compound 0.05 µM) was 0.598. The relative viability ([1]; first compound 0.1581 µM) was 0.193, the relative viability ([1]; first compound 0.5 µM) was 0.182 and the relative viability ([2]; first compound 0.005 µM) was 0.7. The relative viability ([2]; first compound 0.01581 µM) was 0.781, the relative viability ([2]; first compound 0.05 µM) was 0.609 and the relative viability ([2]; first compound 0.1581 µM) was 0.345. The relative viability ([2]; first compound 0.5 µM) was 0.337, the relative viability ([3]; first compound 0.005 µM) was 0.757 and the relative viability ([3]; first compound 0.01581 µM) was 0.673. It also gave a relative viability ([3]; first compound 0.05 µM) of 0.566, a relative viability ([3]; first compound 0.1581 µM) of 0.524 and a relative viability ([3]; first compound 0.5 µM) of 0.469. It also gave a relative viability ([4]; first compound 0.005 µM) of 0.793, a relative viability ([4]; first compound 0.01581 µM) of 0.394 and a relative viability ([4]; first compound 0.05 µM) of 0.348. The relative viability ([4]; first compound 0.1581 µM) was 0.0724, the relative viability ([4]; first compound 0.5 µM) was 0.102 and the relative viability ([5]; first compound 0.005 µM) was 0.235. For the same compound, the relative viability ([5]; first compound 0.01581 µM) was 0.124, the relative viability ([5]; first compound 0.1581 µM) was 0.101 and the relative viability ([5]; first compound 0.5 µM) was 0.0953. For the same compound, the relative viability ([6]; first compound 0.005 µM) was 1.02, the relative viability ([6]; first compound 0.01581 µM) was 1.05 and the relative viability ([6]; first compound 0.05 µM) was 0.764. The relative viability ([6]; first compound 0.1581 µM) was 0.356, the relative viability ([6]; first compound 0.5 µM) was 0.268 and the relative viability ([7]; first compound 0.005 µM) was 0.938. The relative viability ([7]; first compound 0.01581 µM) was 1.02, the relative viability ([7]; first compound 0.05 µM) was 0.845 and the relative viability ([7]; first compound 0.1581 µM) was 0.888. For the same compound, the relative viability ([7]; first compound 0.5 µM) was 0.663, the relative viability ([8]; first compound 0.005 µM) was 0.39 and the relative viability ([8]; first compound 0.01581 µM) was 0.265. It also gave a relative viability ([8]; first compound 0.05 µM) of 0.204, a relative viability ([8]; first compound 0.1581 µM) of 0.139 and a relative viability ([9]; first compound 0.005 µM) of 1.04. The relative viability ([9]; first compound 0.01581 µM) was 0.915, the relative viability ([9]; first compound 0.05 µM) was 0.851 and the relative viability ([9]; first compound 0.1581 µM) was 0.493. It also gave a relative viability ([9]; first compound 0.5 µM) of 0.394, a relative viability ([10]; first compound 0.005 µM) of 0.691 and a relative viability ([10]; first compound 0.01581 µM) of 0.636. It also gave a relative viability ([10]; first compound 0.05 µM) of 0.642, a relative viability ([10]; first compound 0.1581 µM) of 0.501 and a relative viability ([10]; first compound 0.5 µM) of 0.517. The relative viability ([11]; first compound 0.005 µM) was 1.14, the relative viability ([11]; first compound 0.01581 µM) was 1.13 and the relative viability ([11]; first compound 0.05 µM) was 1.26. The relative viability ([11]; first compound 0.1581 µM) was 0.937, the relative viability ([11]; first compound 0.5 µM) was 0.473 and the relative viability ([12]; first compound 0.005 µM) was 0.489. For the same compound, the relative viability ([12]; first compound 0.01581 µM) was 0.391, the relative viability ([12]; first compound 0.05 µM) was 0.182 and the relative viability ([12]; first compound 0.1581 µM) was 0.117. It also gave a relative viability ([12]; first compound 0.5 µM) of 0.0764, a relative viability ([13]; first compound 0.005 µM) of 0.936 and a relative viability ([13]; first compound 0.01581 µM) of 0.827. For the same compound, the relative viability ([13]; first compound 0.05 µM) was 0.869, the relative viability ([13]; first compound 0.1581 µM) was 0.62 and the relative viability ([13]; first compound 0.5 µM) was 0.558. For the same compound, the relative viability ([14]; first compound 0.005 µM) was 0.765, the relative viability ([14]; first compound 0.01581 µM) was 0.597 and the relative viability ([14]; first compound 0.05 µM) was 0.694. It also gave a relative viability ([14]; first compound 0.1581 µM) of 0.564, a relative viability ([14]; first compound 0.5 µM) of 0.408 and a relative viability ([15]; first compound 0.005 µM) of 1.22. It also gave a relative viability ([15]; first compound 0.01581 µM) of 0.964, a relative viability ([15]; first compound 0.05 µM) of 0.868 and a relative viability ([15]; first compound 0.1581 µM) of 0.691. It also gave a relative viability ([15]; first compound 0.5 µM) of 0.663, a relative viability ([16]; first compound 0.005 µM) of 0.68 and a relative viability ([16]; first compound 0.01581 µM) of 0.607. The relative viability ([16]; first compound 0.05 µM) was 0.529, the relative viability ([16]; first compound 0.1581 µM) was 0.283 and the relative viability ([16]; first compound 0.5 µM) was 0.291. It also gave a relative viability ([17]; first compound 0.005 µM) of 0.491, a relative viability ([17]; first compound 0.01581 µM) of 0.356 and a relative viability ([17]; first compound 0.05 µM) of 0.142. It also gave a relative viability ([17]; first compound 0.1581 µM) of 0.086, a relative viability ([17]; first compound 0.5 µM) of 0.0694 and a relative viability ([18]; first compound 0.005 µM) of 0.811. For the same compound, the relative viability ([18]; first compound 0.01581 µM) was 0.733, the relative viability ([18]; first compound 0.05 µM) was 0.405 and the relative viability ([18]; first compound 0.1581 µM) was 0.24. It also gave a relative viability ([18]; first compound 0.5 µM) of 0.214, a relative viability ([19]; first compound 0.005 µM) of 0.461 and a relative viability ([19]; first compound 0.01581 µM) of 0.505. For the same compound, the relative viability ([19]; first compound 0.05 µM) was 0.388, the relative viability ([19]; first compound 0.1581 µM) was 0.258 and the relative viability ([19]; first compound 0.5 µM) was 0.159. For the same compound, the relative viability ([20]; first compound 0.005 µM) was 0.838, the relative viability ([20]; first compound 0.01581 µM) was 1.13 and the relative viability ([20]; first compound 0.05 µM) was 1.05. The relative viability ([20]; first compound 0.1581 µM) was 0.512, the relative viability ([20]; first compound 0.5 µM) was 0.357 and the relative viability ([21]; first compound 0.005 µM) was 0.805. For the same compound, the relative viability ([21]; first compound 0.01581 µM) was 0.826, the relative viability ([21]; first compound 0.05 µM) was 0.62 and the relative viability ([21]; first compound 0.1581 µM) was 0.347. The relative viability ([21]; first compound 0.5 µM) was 0.303, the relative viability ([22]; first compound 0.005 µM) was 0.793 and the relative viability ([22]; first compound 0.01581 µM) was 0.602. The relative viability ([22]; first compound 0.05 µM) was 0.7, the relative viability ([22]; first compound 0.1581 µM) was 0.219 and the relative viability ([22]; first compound 0.5 µM) was 0.182.
